Patent US20090137572A1, “2-substituted-4-heteroaryl-pyrimidines useful for the treatment of proliferative disorders” (priority 2004, published 2009)

Experiments:
Aurora A kinase = target: T1, Aurora A kinase (Homo sapiens, UniProt O14965); assay: Aurora-A (human) kinase assay (Kemptide substrate); type: biochemical; conditions: pIC50 is -log(IC50, M); 15 μM ATP; read-out: Kinase Inhibition pIC50 Aurora A kinase (converted)
T1 construct: purchased
T1 sequence (O14965 1-403): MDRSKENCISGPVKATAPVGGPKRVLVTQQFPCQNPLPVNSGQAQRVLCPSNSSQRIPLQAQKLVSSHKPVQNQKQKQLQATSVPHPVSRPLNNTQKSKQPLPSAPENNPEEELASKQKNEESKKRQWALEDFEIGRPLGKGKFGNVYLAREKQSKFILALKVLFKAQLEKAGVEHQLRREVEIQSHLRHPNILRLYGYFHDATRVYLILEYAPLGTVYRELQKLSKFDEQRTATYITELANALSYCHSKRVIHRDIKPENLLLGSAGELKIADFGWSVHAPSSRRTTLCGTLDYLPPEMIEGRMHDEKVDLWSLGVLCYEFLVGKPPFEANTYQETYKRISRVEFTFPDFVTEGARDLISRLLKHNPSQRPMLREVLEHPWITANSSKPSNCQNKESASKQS
Procedure, shortened: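 Radiometric filter-binding assay: commercial aurora-A kinase (5-10 ng) with 200 μM Kemptide in MOPS/EDTA pH 7.0, started with 10 mM Mg acetate and 15 μM ATP plus [γ-33P]-ATP. Incubated 40 min at room temperature, stopped with phosphoric acid, incorporated 33P counted by scintillation.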

| SMILES | melting point | IC50 (Aurora A kinase) |
| --- | --- | --- |
| Cc1nc(C)c(-c2ccnc(Nc3ccc(N4CCCC4)cc3)n2)s1 [Compound 199, [4-(2,4-Dimethyl-thiazol-5-yl)-pyrimidin-2-yl]-(4-pyrrolidin-1-yl-phenyl)-amine] | 192 to 193 °C | 631 nM |
| Cc1nc(-c2nc(C)c(-c3ccnc(Nc4ccc(N5CCOCC5)cc4)n3)s2)cs1 [Compound 135, [4-(4,2′-Dimethyl-[2,4′]bithiazolyl-5-yl)-pyrimidin-2-yl]-(4-morpholin-4-yl-phenyl)-amine] | 262 to 263 °C | 1260 nM |
| Cc1nc(N(C)c2cc(Cl)cc(Cl)c2)sc1-c1ccnc(Nc2ccc(N3CCOCC3)c(Cl)c2)n1 [Compound 128, (3-Chloro-4-morpholin-4-yl-phenyl)-(4-{2-[(3,5-dichloro-phenyl)-methyl-amino]-4-methyl-thiazol-5-yl}-pyrimidin-2-yl)-amine] | 224 to 225 °C | 100 nM |
| Cc1nc(Nc2ccccc2)sc1-c1ccnc(Nc2ccc(N3CCOCC3)cc2)n1 [Compound 167, [4-(4-Methyl-2-phenylamino-thiazol-5-yl)-pyrimidin-2-yl]-(4-morpholin-4-yl-phenyl)-amine] | 290 to 291 °C |  |
| COCCNS(=O)(=O)c1ccc(Nc2nccc(-c3sc(-c4cccnc4)nc3C)n2)cc1 [Compound 110, N-(2-Methoxy-ethyl)-4-[4-(4-methyl-2-pyridin-3-yl-thiazol-5-yl)-pyrimidin-2-ylamino]-benzenesulfonamide] | 252 to 254 °C | 1000 nM |
| CCNc1nc(C)c(-c2ccnc(Nc3cc(OC)cc(OC)c3)n2)s1 [Compound 160, (3,5-Dimethoxy-phenyl)-[4-(2-ethylamino-4-methyl-thiazol-5-yl)-pyrimidin-2-yl]-amine] | 235 to 237 °C | 794 nM |
| Cc1nc(-c2cccnc2)sc1-c1ccnc(Nc2cc(Cl)c(N3CCOCC3)c(Cl)c2)n1 [Compound 126, (3,5-Dichloro-4-morpholin-4-yl-phenyl)-[4-(4-methyl-2-pyridin-3-yl-thiazol-5-yl)-pyrimidin-2-yl]-amine] | 276 to 278 °C | 251 nM |
| CC(=O)N1CCN(c2ccc(Nc3nccc(-c4sc(-c5ccc(N6CCOCC6)cc5)nc4C)n3)cc2)CC1 [Compound 148, 1-[4-(4-{4-[4-Methyl-2-(4-morpholin-4-yl-phenyl)-thiazol-5-yl]-pyrimidin-2-ylamino}-phenyl)-piperazin-1-yl]-ethanone] | 250 to 252 °C | 316 nM |
| Cc1nc(-c2cccnc2)sc1-c1ccnc(Nc2ccc(N3CCOCC3)c(Cl)c2)n1 [Compound 127, (3-Chloro-4-morpholin-4-yl-phenyl)-[4-(4-methyl-2-pyridin-3-yl-thiazol-5-yl)-pyrimidin-2-yl]-amine] | 230 to 231 °C |  |
| CCc1cc(-c2nc(C)c(-c3ccnc(Nc4ccc(CNC(C)=O)cc4)n3)s2)ccn1 [Compound 104, N-(4-{4-[2-(2-Ethyl-pyridin-4-yl)-4-methyl-thiazol-5-yl]-pyrimidin-2-ylamino}-benzyl)-acetamide] | 224 to 225 °C | 63.1 nM |
| CC(=O)N1CCN(c2ccc(Nc3nccc(-c4sc(Nc5ccccc5)nc4C)n3)cc2)CC1 [Compound 172, 1-(4-{4-[4-(4-Methyl-2-phenylamino-thiazol-5-yl)-pyrimidin-2-ylamino]-phenyl}-piperazin-1-yl)-ethanone] | 245 to 246 °C | 251 nM |
| Cc1nc(N(C)c2ccc(Cl)cc2)sc1-c1ccnc(Nc2ccc(N3CCOCC3)cc2)n1 [Compound 124, (4-{2-[(4-Chloro-phenyl)-methyl-amino]-4-methyl-thiazol-5-yl}-pyrimidin-2-yl)-(4-morpholin-4-yl-phenyl)-amine] | 245 to 246 °C | 200 nM |
| CCNc1nc(C)c(-c2ccnc(Nc3ccc(N4CCCCC4)c(C)c3)n2)s1 [Compound 207, [4-(2-Ethylamino-4-methyl-thiazol-5-yl)-pyrimidin-2-yl]-(3-methyl-4-piperidin-1-yl-phenyl)-amine] | 213 to 214 °C | 501 nM |
| CC(=O)NCc1cccc(Nc2nccc(-c3sc(NCc4ccccc4)nc3C)n2)c1 [Compound 118, N-{3-[4-(2-Benzylamino-4-methyl-thiazol-5-yl)-pyrimidin-2-ylamino]-benzyl}-acetamide] | 181 to 183 °C | 501 nM |
| Cc1nc(NCc2ccccc2)sc1-c1ccnc(Nc2ccc(N3CCOCC3)cc2)n1 [Compound 117, [4-(2-Benzylamino-4-methyl-thiazol-5-yl)-pyrimidin-2-yl]-(4-morpholin-4-yl-phenyl)-amine] | 180 to 183 °C |  |
| CC(=O)NCc1cccc(Nc2nccc(-c3sc(-c4ncc(C(F)(F)F)cc4Cl)nc3C)n2)c1 [Compound 109, N-(3-{4-[2-(3-Chloro-5-trifluoromethyl-pyridin-2-yl)-4-methyl-thiazol-5-yl]-pyrimidin-2-ylamino}-benzyl)-acetamide] | 217 to 218 °C | 631 nM |
| Cc1nc(NCCc2ccccc2)sc1-c1ccnc(Nc2ccc(N3CCN(Cc4ccccc4)CC3)cc2)n1 [Compound 166, [4-(4-Benzyl-piperazin-1-yl)-phenyl]-[4-(4-methyl-2-phenethylamino-thiazol-5-yl)-pyrimidin-2-yl]-amine] | 191 to 192 °C |  |

Other lines, results leading:

| melting point | IC50 (Aurora A kinase) | SMILES |
| --- | --- | --- |
| 213 to 214 °C | 2510 nM | CC(=O)NCc1cccc(Nc2nccc(-c3sc(N(C)c4cc(Cl)cc(Cl)c4)nc3C)n2)c1 [Compound 125, N-[3-(4-{2-[(3,5-Dichloro-phenyl)-methyl-amino]-4-methyl-thiazol-5-yl}-pyrimidin-2-ylamino)-benzyl]-acetamide] |
| 200 to 201 °C | 1000 nM | Cc1cc(Nc2nccc(-c3sc(-c4cccnc4)nc3C)n2)ccc1N1CCCCC1 [Compound 208, (3-Methyl-4-piperidin-1-yl-phenyl)-[4-(4-methyl-2-pyridin-3-yl-thiazol-5-yl)-pyrimidin-2-yl]-amine] |
| 191 to 194 °C |  | COc1cc(Nc2nccc(-c3sc(Nc4ccccc4)nc3C)n2)cc(OC)c1 [Compound 171, (3,5-Dimethoxy-phenyl)-[4-(4-methyl-2-phenylamino-thiazol-5-yl)-pyrimidin-2-yl]-amine] |
| 187 to 188 °C | 2000 nM | Cc1nc(-c2cccnc2)sc1-c1ccnc(Nc2ccc3c(c2)OCO3)n1 [Compound 177, Benzo[1,3]dioxol-5-yl-[4-(4-methyl-2-pyridin-3-yl-thiazol-5-yl)-pyrimidin-2-yl]-amine] |
| 191 to 193 °C | 501 nM | Cc1nc(-c2cccnc2)sc1-c1ccnc(Nc2ccc(N3CCSCC3)cc2)n1 [Compound 204, [4-(4-Methyl-2-pyridin-3-yl-thiazol-5-yl)-pyrimidin-2-yl]-(4-thiomorpholin-4-yl-phenyl)-amine] |
| 227 to 229 °C | 6310 nM | Cc1nc(Nc2ccccc2)sc1-c1ccnc(Nc2ccc(N3CCN(Cc4ccccc4)CC3)cc2)n1 [Compound 176, [4-(4-Benzyl-piperazin-1-yl)-phenyl]-[4-(4-methyl-2-phenylamino-thiazol-5-yl)-pyrimidin-2-yl]-amine] |
| 216 to 218 °C | 50.1 nM | Cc1nc(N(C)c2cc(Cl)cc(Cl)c2)sc1-c1ccnc(Nc2ccc(N3CCOCC3)cc2)n1 [Compound 123, (4-{2-[(3,5-Dichloro-phenyl)-methyl-amino]-4-methyl-thiazol-5-yl}-pyrimidin-2-yl)-(4-morpholin-4-yl-phenyl)-amine] |
| 159 to 160 °C | 398 nM | Cc1nc(C)c(-c2ccnc(Nc3ccc(N4CCCCC4)c(C)c3)n2)s1 [Compound 205, [4-(2,4-Dimethyl-thiazol-5-yl)-pyrimidin-2-yl]-(3-methyl-4-piperidin-1-yl-phenyl)-amine] |
| 212 to 214 °C | 2000 nM | Cc1nc(-c2cccnc2)sc1-c1ccnc(Nc2ccc(N3CCCC3)cc2)n1 [Compound 198, [4-(4-Methyl-2-pyridin-3-yl-thiazol-5-yl)-pyrimidin-2-yl]-(4-pyrrolidin-1-yl-phenyl)-amine] |
| 229 to 230 °C |  | COc1cc(Nc2nccc(-c3sc(-c4cccnc4)nc3C)n2)cc(OC)c1 [Compound 155, (3,5-Dimethoxy-phenyl)-[4-(4-methyl-2-pyridin-3-yl-thiazol-5-yl)-pyrimidin-2-yl]-amine] |
| 233 to 234 °C | 63.1 nM | CCc1cc(-c2nc(C)c(-c3ccnc(Nc4ccc(S(=O)(=O)NCCO)cc4)n3)s2)ccn1 [Compound 102, 4-{4-[2-(2-Ethyl-pyridin-4-yl)-4-methyl-thiazol-5-yl]-pyrimidin-2-ylamino}-N-(2-hydroxy-ethyl)-benzenesulfonamide] |
| > 300 °C |  | CCNc1nc(C)c(-c2ccnc(Nc3cc(Cl)c(N4CCOCC4)c(Cl)c3)n2)s1 [Compound 133, (3,5-Dichloro-4-morpholin-4-yl-phenyl)-[4-(2-ethylamino-4-methyl-thiazol-5-yl)-pyrimidin-2-yl]-amine] |
| > 300 °C |  | Cc1nc(-c2nc(C)c(-c3ccnc(Nc4cc(Cl)c(N5CCOCC5)c(Cl)c4)n3)s2)cs1 [Compound 137, (3,5-Dichloro-4-morpholin-4-yl-phenyl)-[4-(4,2′-dimethyl-[2,4′]bithiazolyl-5-yl)-pyrimidin-2-yl]-amine] |
